Test results: ChEMBL document CHEMBL1156854, “Design and synthesis of piperazine-indole p38 alpha MAP kinase inhibitors with improved pharmacokinetic profiles” (Bioorg Med Chem Lett, 2010)
Blank lines part the entries; values can stand above or below the compound they belong to.

Experiments:
[1] = Oral bioavailability in rat; type: ADME, organism-based; conditions: in vivo
[2] = AUC in po dosed rat; type: ADME, organism-based; conditions: plasma
[3] = AUC in iv dosed rat; type: ADME, organism-based; conditions: plasma
[4] = AUC in po dosed monkey; type: ADME, organism-based, Macaca mulatta; conditions: rhesus monkey, plasma
Rattus norvegicus = assay: Volume of distribution in po dosed rat; type: ADME, organism-based; conditions: in vivo
Liver microsomes [5] = assay: Metabolic stability in human liver microsomes assessed as parent compound level; type: ADME, Microsome
[6] = Tmax in dog; type: ADME, organism-based, Canis lupus familiaris; conditions: in vivo
[7] = Metabolic stability in monkey liver microsomes assessed as parent compound level; type: ADME, Macaca mulatta, Microsome; conditions: rhesus monkey
[8] = Metabolic stability in monkey liver microsomes assessed as demethylated metabolite level; type: ADME, Macaca mulatta, Microsome; conditions: rhesus monkey
[9] = Tmax in monkey; type: ADME, organism-based, Macaca mulatta; conditions: rhesus monkey, in vivo
Liver microsomes [10] = assay: Metabolic stability in rat liver microsomes assessed as parent compound level; type: ADME, Microsome
[11] = Oral bioavailability in dog; type: ADME, organism-based, Canis lupus familiaris; conditions: in vivo
Canis familiaris = assay: Volume of distribution in po dosed dog; type: ADME, organism-based, Canis lupus familiaris; conditions: in vivo
[12] = AUC in po dosed dog; type: ADME, organism-based, Canis lupus familiaris; conditions: plasma
[13] = AUC in iv dosed dog; type: ADME, organism-based, Canis lupus familiaris; conditions: plasma
[14] = Tmax in rat; type: ADME, organism-based; conditions: in vivo
[15] = Cmax in dog; type: ADME, organism-based, Canis lupus familiaris; conditions: in vivo
[16] = Cmax in monkey; type: ADME, organism-based, Macaca mulatta; conditions: rhesus monkey, in vivo
Liver microsomes [17] = assay: Metabolic stability in rat liver microsomes assessed as demethylated metabolite level; type: ADME, Microsome
[18] = Clearance in po dosed dog; type: ADME, organism-based, Canis lupus familiaris; conditions: in vivo
[19] = Clearance in po dosed rat; type: ADME, organism-based; conditions: in vivo
[20] = Cmax in rat; type: ADME, organism-based; conditions: in vivo
[21] = Metabolic stability in dog liver microsomes assessed as parent compound level; type: ADME, Canis lupus familiaris, Microsome
[22] = Oral bioavailability in monkey; type: ADME, organism-based, Macaca mulatta; conditions: rhesus monkey, in vivo

bioavailability [1]: 31% | AUC [2]: 1270 ng·h/mL | AUC [3]: 810 ng·h/mL | AUC [4]: 1830 ng·h/mL | Vd (Rattus norvegicus): 2.7 L/kg | Stability (Liver microsomes [5]): 90.8% | Tmax [6]: 1.3 h | Stability [7]: 71.4% | Stability [8]: 19.5% | Tmax [9]: 2 h | Stability (Liver microsomes [10]): 83.9% | bioavailability [11]: 33% | Vd (Canis familiaris): 6.5 L/kg | AUC [12]: 5610 ng·h/mL | AUC [13]: 3430 ng·h/mL | Tmax [14]: 1.2 h | Cmax [15]: 899 ng/mL | Cmax [16]: 360 ng/mL | Stability (Liver microsomes [17]): 9.4% | CL/F [18]: 3.33 mL/min/kg | CL/F [19]: 20 mL/min/kg | Cmax [20]: 367 ng/mL | Stability [21]: 91.7%
SMILES: C[C@@H]1CN(C(c2ccccc2)c2ccccc2)[C@@H](C)CN1C(=O)c1cc2c(C(=O)C(=O)N(C)C)cn(C)c2cc1Cl

Stability (Liver microsomes [5]): 65.1% | Stability [7]: 51.2% | Stability [8]: 11.9% | Stability (Liver microsomes [10]): 65.8% | bioavailability [11]: 69% | Stability (Liver microsomes [17]): 3.2% | Stability [21]: 94.5% | bioavailability [22]: 12%
SMILES: C[C@@H]1CN(Cc2ccc(F)cc2)[C@@H](C)CN1C(=O)c1cc2c(C(=O)C(=O)N(C)C)cn(C)c2cc1Cl [TALMAPIMOD]
